Here are results for 20 compounds from US8119624B2, “Fused phenyl amido heterocyclic compounds” (Pfizer Inc., priority 2006, dated 2012).

The target in the assay is T1, Full-length glucokinase (beta cell isoform) (Homo sapiens, UniProt P35557).
T1 construct: Full-length glucokinase (beta cell isoform) was His-tagged at N-terminus; His tag (N); made in house
T1 sequence (P35557 1-465): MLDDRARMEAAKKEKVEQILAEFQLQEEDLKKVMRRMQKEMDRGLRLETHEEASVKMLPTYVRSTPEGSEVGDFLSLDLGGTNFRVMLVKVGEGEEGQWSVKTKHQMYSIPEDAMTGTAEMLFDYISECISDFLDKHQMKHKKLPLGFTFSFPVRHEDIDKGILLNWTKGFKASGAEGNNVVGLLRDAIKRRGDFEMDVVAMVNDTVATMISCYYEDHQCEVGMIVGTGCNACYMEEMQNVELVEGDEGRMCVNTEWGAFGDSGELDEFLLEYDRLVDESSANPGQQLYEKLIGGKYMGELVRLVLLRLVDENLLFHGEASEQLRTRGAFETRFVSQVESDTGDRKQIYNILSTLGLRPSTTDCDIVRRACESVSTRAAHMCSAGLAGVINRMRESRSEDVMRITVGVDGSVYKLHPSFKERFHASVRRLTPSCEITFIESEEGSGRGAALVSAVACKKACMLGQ
Put plainly: Glucokinase biochemical assay (PK/LDH-coupled, NADH depletion at 340 nm): % activation, EC50, % max activation. As to conditions: 5 mM glucose; for activation at 10 µM: read-out: % Activation at 10 uM; for EC50: read-out: EC50; for Emax: fitted maximum activation, read-out: % Max Activation. The method, then: Full-length glucokinase (beta cell isoform) was His-tagged at N-terminus and purified by a Ni column followed by size exclusion chromatography. Glucose was obtained from Calbiochem, and other reagents were from Sigma.
All assays were performed in a Corning 96-well plate using Spectramax PLUS spectrophotometer (Molecular Devices) at room temperature. The final assay volume was 100 uL. The buffer conditions used in this assay were as follows: 50 mM HEPES, 5 mM glucose, 1 mM ATP, 2 mM MgCl2, 0.7mM NADH, 2 mM DTT, 1 Unit/mL PK/LDH, 0.2 mM phosphoenolpyruvate, 25 mM KCl. Tested compound in DMSO solution was added to the buffer and mixed well by a plate shaker for 1 minute. The final concentration of DMSO introduced into the assay was 1%.
Glucokinase was added to the buffer mixture to initiate the reaction in the presence and absence of compound. Reaction was monitored by absorbance at 340nm due to the depletion of NADH. The initial reaction velocity was measured by the slope of a linear time course of 200-900 sec.
The percentage of activation was calculated by the following equation: % Activation=(Va/Vo−1)×100;
wherein each of Va and Vo is defined as the initial reaction velocity in the presence and absence of the tested compound, respectively.
The GK activities were measured as a function of compound concentrations.

[1] abbreviates: compound at 10 uM, 1 mM ATP, room temperature.
[2] abbreviates: 10 uM compound, % Activation=(Va/Vo−1)×100.

Molecules are shown by their SMILES. Where two headings read alike, the source gives them in different places. Some results are limits rather than exact numbers.

With `Cc1ccc(NC(=O)c2cc(Oc3ccc(S(C)(=O)=O)cc3)c3c(c2)C(=O)N(C(C)C)C3)nc1` [Example 383, 2-Isopropyl-N-(5-methylpyridin-2-yl)-7-(4-(methylsulfonyl)-phenoxy)-3-oxoisoindoline-5-carboxamide], the activation at 10 µM under setting [1] came out at 32.6%.

Turning to `Cn1ccc(NC(=O)c2cc(Oc3ccc(C(=O)N4CC(F)C4)nc3)c3c(c2)OC(C)(C)C3)n1` [Example 397, 4-[6-(3-Fluoro-azetidine-1-carbonyl)-pyridin-3-yloxy]-2,2-dimethyl-2,3-dihydro-benzofuran-6-carboxylic acid(1-methyl-1H-pyrazol-3-yl)-amide], the EC50 (1 mM ATP, room temperature) turned out to be 83 nM. For the same compound, the activation at 10 µM under setting [1] amounted to 213%. Moreover, the Emax (1 mM ATP) turned out to be 202%.

As for `CN(C)C(=O)c1ccc(Oc2cc(C(=O)Nc3ccn(C)n3)cc3c2CC(C)(C)O3)cc1` [Example 149, 4-(4-Dimethylcarbamoyl-phenoxy)-2,2-dimethyl-2,3-dihydro-benzofuran-6-carboxylic acid (1-methyl-1H-pyrazol-3-yl)-amide], the Emax is 104%. Further, the activation at 10 µM under setting [2] came to 105%. In addition, where the note is “GK activation”, the EC50 was 120 nM.

As to `Cc1cc2cc(C(=O)Nc3ccn(C)n3)cc(Oc3ccc(S(C)(=O)=O)cc3)c2s1` [Example 330, 2-Methyl-N-(1-methyl-1H-pyrazol-3-yl)-7-[4-(methylsulfonyl)-phenoxy]-1-benzothiophene-5-carboxamide], the Emax is 162%. In addition, under setting [2], the activation at 10 µM was determined as 125%. Also, the EC50 (GK activation) amounted to 1700 nM.

As to `Cc1ccc(NC(=O)c2cc(Oc3ccc(S(=O)(=O)N(C)C)cc3)c3c(c2)OC(C)(C)C3)nc1` [Example 128, 4-(4-Dimethylsulfamoyl-phenoxy)-2,2-dimethyl-2,3-dihydro-benzofuran-6-carboxylic acid (5-methyl-pyridin-2-yl)-amide], the Emax came out at 112%. Besides, the activation at 10 µM under setting [2] turned out to be 135%. In addition, the EC50 (GK activation) came to 38 nM.

`COc1ccnc(NC(=O)c2cc(Oc3ccc(S(=O)(=O)N(C)C)c(F)c3)c3cc(C)oc3c2)c1` [Example 293, 4-{4-[(Dimethylamino)sulfonyl]-3-fluorophenoxy}-N-(4-methoxypyridin-2-yl)-2-methyl-1-benzofuran-6-carboxamide]: the Emax stood at 50%. Under setting [2], the activation at 10 µM is 46.9%. Further, the EC50 (GK activation) is 590 nM.

Take `Cc1ccc(NC(=O)c2cc(Oc3ccc(C(=O)N(C)C)c(F)c3)c3c(c2)OC(C)(CO)C3)nc1` (stereo not drawn) [Example 239, 4-(4-Dimethylcarbamoyl-3-fluoro-phenoxy)-2-hydroxymethyl-2-methyl-2,3-dihydro-benzofuran-6-carboxylic acid (5-methyl-pyridin-2-yl)-amide]: the Emax is 42%. Further, under setting [2], the activation at 10 µM was 32.1%. The EC50 (GK activation) worked out at 20 nM.

Turning to `COc1cnc(NC(=O)c2cc(Oc3ccc(S(C)(=O)=O)cn3)c3cc(C)oc3c2)cn1` [Example 284, N-(5-Methoxypyrazin-2-yl)-2-methyl-4-(5-(methylsulfonyl)-pyridin-2-yloxy)-benzofuran-6-carboxamide], the Emax worked out at 218%. In addition, the activation at 10 µM under setting [2] was 86.1%. For the same compound, for the setting “GK activation”, the EC50 came out at 5500 nM.

As for `CN(C)C1CN(C(=O)c2ccc(Oc3cc(C(=O)Nc4ccn(C)n4)cc4c3CC(C)(C)O4)c(F)c2)C1` [Example 44, 4-[4-(3-Dimethylamino-azetidine-1-carbonyl)-2-fluoro-phenoxy]-2,2-dimethyl-2,3-dihydro-benzofuran-6-carboxylic acid(1-methyl-1H-pyrazol-3-yl)-amide], the Emax is 146%. The activation at 10 µM under setting [2] was determined as 137%. In addition, where the note is “GK activation”, the EC50 was 580 nM.

For the compound `Cc1cc2c(Oc3ccc(S(C)(=O)=O)cc3)cc(C(=O)Nc3ccc(F)cn3)cc2o1` [Example 256, N-(5-Fluoropyridin-2-yl)-2-methyl-4-(4-(methylsulfonyl)-phenoxy)benzofuran-6-carboxamide], the Emax came to 126%. The activation at 10 µM under setting [2] is 89.2%. Further, the EC50 (GK activation) turned out to be 4500 nM.

With `CC(C)Oc1cc(C(=O)Nc2ccn(C)n2)cc2c1CC(Cc1ccccc1)O2` (stereo not drawn) [Example 221, 2-Benzyl-4-isopropoxy-2,3-dihydro-benzofuran-6-carboxylic acid (1-methyl-1H-pyrazol-3-yl)-amide], the activation at 10 µM under setting [2] was 8.4%.

For `Cn1ncc(NC(=O)c2cc(Oc3ccc(S(C)(=O)=O)cc3)cc3c2CC(C)(C)O3)n1` [Example 198, 6-(4-Methanesulfonyl-phenoxy)-2,2-dimethyl-2,3-dihydro-benzofuran-4-carboxylic acid (2-methyl-2H-[1,2,3]triazol-4-yl)-amide], under setting [2], the activation at 10 µM was determined as 51.4%. Besides, the half-maximal effective concentration (EC50) (GK activation) was over 10000 nM.

For `Cc1cc2c(Oc3ccc(S(C)(=O)=O)cc3)cc(C(=O)Nc3cnn(C)n3)cc2o1` [Example 267, 2-Methyl-N-(2-methyl-2H-1,2,3-triazol-4-yl)-4-(4-(methylsulfonyl)phenoxy)-benzofuran-6-carboxamide], the Emax turned out to be 165%. Besides, under setting [2], the activation at 10 µM amounted to 145%. The EC50 (GK activation) came to 1700 nM.

On to `Cn1ccc(NC(=O)c2cc(Oc3cccc(C(=O)N4CCC4)c3)c3c(c2)OC(C)(C)C3)n1` [Example 37, 4-[3-(Azetidine-1-carbonyl)-phenoxy]-2,2-dimethyl-2,3-dihydro-benzofuran-6-carboxylic acid(1-methyl-1H-pyrazol-3-yl)-amide], for which the Emax is 143%. Further, under setting [2], the activation at 10 µM amounted to 107%. Besides, the EC50 (GK activation) was 890 nM.

On to `Cn1ccc(NC(=O)c2cc(Oc3ccc(S(C)(=O)=O)cc3)c3cc(C(=O)N4CCC4)oc3c2)n1` [Example 291, 2-(Azetidin-1-ylcarbonyl)-N-(1-methyl-1H-pyrazol-3-yl)-4-[4-(methylsulfonyl)-phenoxy]-1-benzofuran-6-carboxamide], for which the activation at 10 µM under setting [2] was 12.7%.

With `COCC1(C)Cc2c(Oc3ccc(S(=O)(=O)C4CC4)cc3)cc(C(=O)Nc3cnn(C)n3)cc2O1` (single isomer, unassigned; (+)) [Example 249, (+)-4-(4-Cyclopropanesulfonyl-phenoxy)-2-methoxymethyl-2-methyl-2,3-dihydro-benzofuran-6-carboxylic acid (2-methyl-2H-[1,2,3]triazol-4-yl)-amide], the Emax is 262%. The “% Activation at 10 uM” value under setting [2] is recorded as 276%. The EC50 (GK activation) was determined as 86 nM.

Turning to `CN(C)C(=O)c1ccc(Oc2cc(C(=O)Nc3ccc(CNC4CC4)cn3)cc3c2CC(C)(C)O3)cc1F` [Example 147, 4-(4-Dimethylcarbamoyl-3-fluoro-phenoxy)-2,2-dimethyl-2,3-dihydro-benzofuran-6-carboxylic acid (5-cyclopropylaminomethyl-pyridin-2-yl)-amide], the activation at 10 µM under setting [2] amounted to 35%.

On to `Cc1cc2c(Oc3ccc(S(=O)(=O)N(C)C)c(F)c3)cc(C(=O)Nc3cnn(C)n3)cc2o1` [Example 306, 4-{4-[(Dimethylamino)sulfonyl]-3-fluorophenoxy}-2-methyl-N-(2-methyl-2H-1,2,3-triazol-4-yl)-1-benzofuran-6-carboxamide], for which the Emax worked out at 186%. In addition, the activation at 10 µM under setting [2] worked out at 185%. Besides, the EC50 (GK activation) is 330 nM.

Consider `CN(C)C(=O)c1cc(F)c(Oc2cc(C(=O)Nc3ccn(C)n3)cc3c2CC(C)(C)O3)cc1F` [Example 109, 4-(4-Dimethylcarbamoyl-2,5-difluoro-phenoxy)-2,2-dimethyl-2,3-dihydro-benzofuran-6-carboxylic acid (1-methyl-1H-pyrazol-3-yl)-amide], for which the Emax amounted to 83%. Further, the activation at 10 µM under setting [2] stood at 86.9%. The EC50 (GK activation) came out at 280 nM.

As for `CN(CC#N)C(=O)c1ccc(Oc2cc(C(=O)Nc3ccn(C)n3)cc3c2CC(C)(C)O3)cn1` [Example 399, 5-[2,2-Dimethyl-6-(1-methyl-1H-pyrazol-3-ylcarbamoyl)-2,3-dihydro-benzofuran-4-yloxy]-pyridine-2-carboxylic acid cyanomethyl-methyl-amide], the EC50 (1 mM ATP, room temperature) was 610 nM. Under setting [1], the activation at 10 µM was 212%. Moreover, the Emax (1 mM ATP) stood at 231%.

By EC50 is commonly meant the concentration giving half of the maximal effect.
